Measured values published in EP0156785A1, “2-(Aminoalkyl)-acrylophenones, their preparation and their use” (S.A.R.L. GALEPHAR, priority 1984, dated 1985).
pIC50: −log10 of the molar value.

Columns and labels:
rat = assay: Triton WR 1339-induced hyperlipidaemia in the rat (plasma triglycerides and cholesterol); format: in vivo; conditions: Triton WR 1339 175 mg/kg (IV), plasma 24 h after Triton
Protocol: Cette propriété a été mise en évidence chez le rat au moyen de la méthode utilisant le Triton WR 1339 comme inducteur d'hyperlipémie.
Quatre heures après l'injection I.V. aux rats de 175 mg de Triton WR 1339 par kg de poids corporel, on leur injecte par voie intrapéritonéale soit du sérum physiologique (témoins) soit la substance à étudier. Les rats sont sacrifiés 24 heures après l'injection du Triton WR 1339 et les plasmas recueillis pour les dosages (résultats : Tableau I) des triglycérides et du cholestérol.

plaquettes = assay: Platelet anti-aggregation activity, aggregation induced by adenosine triphosphate; format: cell-based; conditions: dose reducing platelet aggregation by 50%; inducer adénosine triphosphate; read-out: D.E.50 (the source's name)
Excerpt: Les propriétés antiagrégantes plaquettaires des acrylophénones de la présente invention ont été mises en évidence au moyen d'adénosine triphosphate choisi comme agent inducteur de l'agrégation plaquettaire.
Les doses efficaces réduisant de 50% l'agrégation des plaquettes (D.E.50) ont été déterminées (Tableau II). Ces résultats montrent que les substances agissent à des doses de l'ordre micromolaire.

[1] = Qualitative solubility of the isolated product; format: physicochemical
Protocol: 3 g (0,1 M) de trioxyméthylène et 8,65 g (0,05 M) de dichlorhydrate de N-méthylpipérazine sont ajoutés à 6 g d'acétophénone dans 20 ml d'acide acétique. Le mélange est chauffé à reflux pendant 3 h. Le solvant est éliminé et le résidu jaune huileux est dissous dans 50 ml d'éthanol. Après élimimation du solvant, le résidu cristallise dans du méthanol.

[2] = treatment 4 mg/kg (IP) 4 h after Triton
[3] = treatment 2 mg/kg (IP) 4 h after Triton

| SMILES | Diminution(%)sous l'influence du traitement cholestérolémie (rat; [2]) | Diminution(%)sous l'influence du traitement triglycéridémie (rat; [2]) | pIC50 (plaquettes) | Diminution(%)sous l'influence du traitement cholestérolémie (rat; [3]) [%] | Diminution(%)sous l'influence du traitement triglycéridémie (rat; [3]) | solubilité dans l'acétone ([1]; acetone) | solubilité dans l'alcool ([1]; alcohol) | solubilité dans l'eau ([1]; water) |
| --- | --- | --- | --- | --- | --- | --- | --- | --- |
| C=C(CN1CCOCC1)C(=O)c1ccccc1 [chlorhydratede 2-(1-morpholinométhyl)-acrylophénone] | 51,0% | 44,5% | 5.71 |  |  |  |  |  |
| C=C(CN(C)C)C(=O)c1ccccc1 [chlorhydratede 2-(N,N-diméthylaminométhyl)-acrylophénone] |  |  | 5.95 | 48 | 36,5% |  |  |  |
| C=C(CN1CCN(C)CC1)C(=O)c1ccccc1 [Exemple 1, Dichlorhydratede 2-(4-méthyl-1-pipérazinylméthyl)acrylophénone] | 57,5% | 47% | 5.88 |  |  | pratiquement insoluble dans l'acétone | peu soluble dans l'alcool | très soluble dans l'eau |
